According to PubChem BioAssay (NCI):
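Values below derive from 48-hour exposures of cells grown in 96-well plates, with endpoints linearly interpolated between the two concentrations bracketing the appropriate inhibition level. GI50 is the concentration that inhibits growth by half. At the TGI there is no net growth.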

Legend:
Test in all cases: inhibition of tumour cell growth, NCI panel, 48 h
[1] = system: KM12 colon
[2] = system: M14 melanoma
[3] = system: CCRF-CEM leukemia
[4] = system: UO-31 renal
[5] = system: COLO 205 colon
[6] = system: SK-MEL-28 melanoma
[7] = system: NCI-H460 lung
[8] = system: OVCAR-3 ovarian
[9] = system: HL-60(TB) leukemia
[10] = system: HT29 colon
[11] = system: MDA-MB-231 breast
[12] = system: SF-539 CNS
[13] = system: SNB-75 CNS

Compound | TGI [1] [µM] | TGI [2] [µM] | TGI [3] [µM] | TGI [4] [µM] | TGI [5] [µM] | TGI [6] [µM] | TGI [7] [µM] | TGI [8] [µM] | TGI [9] [µM] | TGI [10] [µM] | TGI [11] [µM] | TGI [12] [µM] | GI50 [1] [µM] | GI50 [13] [µM] | TGI [13] [µM] | GI50 [6] [µM] | GI50 [10] [µM]
C=CCN1C(=O)CC1N(CC=C)S(=O)(=O)c1ccc(C)cc1 (stereo not given) | > 100 | > 100 | > 100 | > 100 | > 100 | > 100 | > 100 | > 100 | > 100 | > 100 | – | – | – | – | – | – | –
FC(F)(F)c1nc2ccc(SSc3ccc4nc(C(F)(F)F)[nH]c4c3)cc2[nH]1 | > 100 | > 100 | – | > 100 | > 100 | > 100 | 75.1 | > 100 | > 100 | > 100 | 71.3 | > 100 | > 100 | > 100 | > 100 | > 100 | > 100
O=C1NCN(c2ccccc2)C12CCN(CCc1ccc3[nH]c(=S)[nH]c3c1)CC2 | > 100 | 58.3 | 22 | – | 30.7 | 20.3 | > 100 | > 100 | > 100 | > 100 | 41.6 | 58.4 | – | – | – | – | –
O=c1cc(CO)n(CCc2c[nH]c3ccccc23)cc1O | > 100 | > 100 | 69.8 | > 100 | > 100 | – | > 100 | 75.1 | – | > 100 | > 100 | > 100 | – | – | – | – | –
CN(C)/C(N)=N/C(N)=Nc1cccc(Cl)c1 | > 100 | > 100 | – | > 100 | 49.8 | > 100 | > 100 | > 100 | – | > 100 | > 100 | > 100 | – | – | > 100 | – | –
N#Cc1nc(CSCc2ccccc2)oc1N | > 100 | > 100 | > 100 | > 100 | > 100 | > 100 | > 100 | > 100 | – | > 100 | > 100 | > 100 | – | – | – | – | –
COC(=O)Nc1nc2ccc(Oc3ccc4nc(NC(=O)OC)[nH]c4c3)cc2[nH]1 | > 62.5 | > 29.6 | – | > 100 | 7.59 | > 20.4 | > 100 | 0.744 | 1.96 | > 100 | 11 | 1.69 | – | – | 2.87 | – | –
COc1ccc(-c2cc(-c3ccc(Cl)cc3)n(C3OC(CO)C(O)C(O)C3O)c(=S)c2C#N)cc1 (stereo not given) | > 100 | 89.7 | – | > 100 | > 100 | > 100 | > 100 | – | – | > 100 | > 100 | > 100 | – | – | > 100 | – | –
O=c1[nH]c(=O)n(C2CC(O)C(CO)O2)cc1OCCc1ccccc1 (stereo not given) | > 100 | > 100 | > 100 | > 100 | > 100 | > 100 | – | > 100 | > 100 | > 100 | > 100 | – | – | – | > 100 | – | –
C/C(=N/NC(=O)c1ccncc1)c1ccc(NC(=O)C(=O)Nn2c(=S)[nH]c3ccccc3c2=O)cc1 | > 100 | > 100 | > 100 | > 100 | > 100 | > 100 | > 100 | > 100 | – | > 100 | > 100 | > 100 | – | – | > 100 | – | –
CCC[C@H](O)[C@@H](CNc1cc(NC(C)=O)nc(NC(C)=O)n1)N(Cc1ccccc1)Cc1ccccc1 | 39.1 | > 100 | – | 48.6 | > 100 | > 100 | > 100 | 55.6 | – | – | > 100 | – | – | – | 34.8 | – | –
N=C(N)C1CN(CCc2cnc[nH]2)C(=O)NC1=O (stereo not given) | > 100 | > 100 | > 100 | > 100 | > 100 | > 100 | > 100 | > 100 | > 100 | > 100 | – | > 100 | – | – | > 100 | – | –
Nc1ccc(-c2ncc3cc(-c4cccc(-c5cc6cnc(-c7ccc(N)cc7)nc6c6ccccc56)c4)c4ccccc4c3n2)cc1 | > 100 | > 100 | > 100 | > 100 | > 100 | > 100 | > 100 | > 100 | – | > 100 | > 100 | > 100 | – | – | > 100 | – | –
Cc1cccc2[nH]c3cc(O)cc(O)c3c(=O)c12 | > 10 | > 10 | > 10 | > 10 | > 10 | > 10 | > 10 | > 10 | – | > 10 | > 10 | > 10 | – | – | > 10 | – | –
COC1(C(C)(C)C)C=C(C(C)(C)C)P(=O)(O)O1 (stereo not given) | > 100 | > 100 | – | – | > 100 | > 100 | > 100 | > 100 | > 100 | > 100 | – | > 100 | – | – | > 100 | – | –
N#Cc1nc(C2CC2)oc1N | > 100 | > 100 | > 100 | – | > 100 | > 100 | – | > 100 | – | > 100 | > 100 | > 100 | – | – | > 100 | – | –
CCC(CC)C(=O)OC[n+]1ccc(-c2c(COC(=O)NC(C)C)c(COC(=O)NC(C)C)c3n2CCC3)cc1 | – | > 100 | > 100 | > 100 | > 100 | – | – | > 100 | > 100 | – | > 100 | > 100 | – | – | – | – | –
CCOC(=O)N1CCN(c2c(C)nc(C)[nH]c2=O)CC1 | > 100 | > 100 | > 100 | > 100 | > 100 | > 100 | > 100 | > 100 | > 100 | > 100 | > 100 | > 100 | – | – | – | – | –
CCN(CC)CCNc1ccc2ncn3c4c(OC)ccc(OC)c4c(=O)c1c23 | 22.6 | 34.4 | 27.1 | > 100 | 20.4 | 39.2 | 31.3 | > 100 | – | – | 29.1 | 44.1 | – | – | 23.3 | – | –
